# Results from publication PMC8343220, “The selectivity of α‐adrenoceptor agonists for the human α1A, α1B, and α1D‐adrenoceptors” (Pharmacology Research & Perspectives, 2021).
# Read-outs that look alike come from different tables or passages of the source.
# Assays:
# human α1A‐adrenoceptor [1] = target: T1, human α1A‐adrenoceptor (Homo sapiens, UniProt P35348); experiment: ^3H‐prazosin whole‐cell radioligand binding, CHO‐α1A cells
# T1 construct: expressed in transfected cells; host or cells: CHO-K1
# T1 sequence (P35348 1-466): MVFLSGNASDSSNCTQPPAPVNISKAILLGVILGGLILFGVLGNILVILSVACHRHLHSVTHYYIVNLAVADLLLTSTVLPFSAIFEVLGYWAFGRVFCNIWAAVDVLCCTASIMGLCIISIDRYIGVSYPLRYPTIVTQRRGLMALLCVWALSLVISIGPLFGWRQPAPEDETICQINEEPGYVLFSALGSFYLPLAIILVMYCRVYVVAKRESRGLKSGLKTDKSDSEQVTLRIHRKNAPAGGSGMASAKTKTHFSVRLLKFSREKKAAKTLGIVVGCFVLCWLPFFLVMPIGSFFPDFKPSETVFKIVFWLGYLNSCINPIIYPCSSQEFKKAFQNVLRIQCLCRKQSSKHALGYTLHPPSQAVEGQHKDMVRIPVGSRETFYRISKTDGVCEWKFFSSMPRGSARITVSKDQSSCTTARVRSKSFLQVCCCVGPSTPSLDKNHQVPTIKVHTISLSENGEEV
# human α1B‐adrenoceptor [2] = target: T2, human α1B‐adrenoceptor (Homo sapiens, UniProt P35368); experiment: ^3H‐prazosin whole‐cell radioligand binding, CHO‐α1B cells; settings: CHO‐α1B cells
# T2 construct: expressed in transfected cells; host or cells: CHO-K1
# T2 sequence (P35368 1-520): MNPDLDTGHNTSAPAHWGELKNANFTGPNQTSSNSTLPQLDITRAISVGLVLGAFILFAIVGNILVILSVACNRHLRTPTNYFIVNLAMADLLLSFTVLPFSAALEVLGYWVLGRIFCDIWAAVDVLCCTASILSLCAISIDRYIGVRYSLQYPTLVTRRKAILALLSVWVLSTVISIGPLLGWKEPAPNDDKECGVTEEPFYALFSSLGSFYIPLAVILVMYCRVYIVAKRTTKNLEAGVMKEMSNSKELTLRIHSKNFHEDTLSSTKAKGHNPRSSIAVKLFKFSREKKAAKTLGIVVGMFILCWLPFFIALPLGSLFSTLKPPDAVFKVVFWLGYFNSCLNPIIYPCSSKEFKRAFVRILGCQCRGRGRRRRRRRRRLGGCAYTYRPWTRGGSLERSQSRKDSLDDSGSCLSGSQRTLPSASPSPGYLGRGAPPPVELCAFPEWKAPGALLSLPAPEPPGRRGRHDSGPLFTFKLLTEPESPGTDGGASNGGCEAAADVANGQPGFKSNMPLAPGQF
# [3] = target: T3, human α1D‐adrenoceptor (full length) (Homo sapiens, UniProt P25100); experiment: ^3H‐prazosin whole‐cell radioligand binding, CHO‐α1D cells
# T3 construct: human α1D‐adrenoceptor (full length) were used; expressed in transfected cells; host or cells: CHO-K1
# T3 sequence (P25100 1-572): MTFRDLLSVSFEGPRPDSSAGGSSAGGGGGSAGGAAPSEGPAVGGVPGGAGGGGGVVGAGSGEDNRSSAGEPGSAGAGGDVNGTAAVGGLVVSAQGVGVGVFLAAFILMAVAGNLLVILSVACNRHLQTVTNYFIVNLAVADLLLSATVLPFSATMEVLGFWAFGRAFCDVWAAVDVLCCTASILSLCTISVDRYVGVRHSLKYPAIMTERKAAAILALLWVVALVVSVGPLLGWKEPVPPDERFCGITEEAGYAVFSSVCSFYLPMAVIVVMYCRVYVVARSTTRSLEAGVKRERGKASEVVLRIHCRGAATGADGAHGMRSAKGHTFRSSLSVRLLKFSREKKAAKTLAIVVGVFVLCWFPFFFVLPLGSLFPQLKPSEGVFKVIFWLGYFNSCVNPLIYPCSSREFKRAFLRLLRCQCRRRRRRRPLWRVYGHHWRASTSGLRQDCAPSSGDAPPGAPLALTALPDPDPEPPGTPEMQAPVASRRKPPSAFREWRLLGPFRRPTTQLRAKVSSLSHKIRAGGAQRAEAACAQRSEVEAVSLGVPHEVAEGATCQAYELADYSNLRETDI
# human α1A‐adrenoceptor [4] = target: T1, human α1A‐adrenoceptor; experiment: Intracellular free calcium mobilization, CHO‐α1A cells; assay type: cell-based; settings: CHO‐α1A cells
# human α1B‐adrenoceptor [5] = target: T2, human α1B‐adrenoceptor; experiment: Intracellular free calcium mobilization, CHO‐α1B cells; assay type: cell-based; settings: CHO‐α1B cells; response at 100 µM ligand (no EC50 given), % of ionomycin response
# [6] = target: T3, human α1D‐adrenoceptor (full length); experiment: Intracellular free calcium mobilization, CHO‐α1D cells; assay type: cell-based
# human α1A‐adrenoceptor [7] = target: T1, human α1A‐adrenoceptor; experiment: ERK1/2‐phosphorylation (Surefire Alphascreen), CHO‐α1A cells; assay type: cell-based; settings: CHO‐α1A cells, no EC50 obtained
# human α1B‐adrenoceptor [8] = target: T2, human α1B‐adrenoceptor; experiment: ERK1/2‐phosphorylation (Surefire Alphascreen), CHO‐α1B cells; assay type: cell-based; settings: CHO‐α1B cells
# [9] = target: T3, human α1D‐adrenoceptor (full length); experiment: ERK1/2‐phosphorylation (Surefire Alphascreen), CHO‐α1D cells; assay type: cell-based; settings: for ERK1/2‐phosphorylation Log EC50: log values given negative
# [10] = test system: parental CHO cell line without any transfected receptors; experiment: ERK1/2‐phosphorylation, parent CHO cells without transfected receptors; assay type: cell-based, Chinese hamster; settings: CHO cells without transfected receptors, mean ± s.e.m.; for ERK1/2-phosphorylation % PDBu: maximal response as % of PDBu (10μM) response
# [11] = test system: parental CHO cell line without any transfected receptors; experiment: Forskolin‐stimulated cAMP accumulation, parent CHO cells without transfected receptors; assay type: cell-based, Chinese hamster
smiles,measurement,setting,value
C1COC(NC(C2CC2)C2CC2)=N1 [Rilmenidine],Kd,"human α1A‐adrenoceptor [1]; Log KD α1A, ^3H‐prazosin whole cell binding, CHO‐α1A cells, given as log KD (negative), mean ± SEM",32.4 µM
same,Affinity selectivity ratio α1A vs α1B,human α1A‐adrenoceptor [1]; higher affinity for α1A than α1B,>3.1 fold
same,IC50,human α1B‐adrenoceptor [2]; printed as IC50> log value,> 100 µM
same,Kd,"[3]; 3H‐prazosin binding Log KD, CHO‐α1D cells, whole‐cell binding (from Table 1), log values given negative",18.6 µM
same,Kd,"[3]; CHO‐α1D cells, given as log KD (negative), mean ± SEM, 'early plateau' = specific binding not fully inhibited",18.6 µM
same,Affinity selectivity ratio α1A vs α1D,[3]; higher affinity for α1D than α1A,1.7 fold
same,Affinity selectivity ratio α1B vs α1D,[3]; higher affinity for α1D than α1B,>5.4 fold
same,Log efficacy ratio KD /EC50,human α1A‐adrenoceptor [4]; binding KD and calcium EC50,1.19
same,EC50,"human α1A‐adrenoceptor [4]; given as log EC50 (negative), read-out: Intracellular calcium release Log EC50 (converted)",2.09 µM
same,Intracellular calcium release % ionomycin,human α1A‐adrenoceptor [4]; maximal response as % of 10 µM ionomycin,45.9 ± 3.8%
same,Intracellular calcium release % Ionomycin at 100 µM,human α1B‐adrenoceptor [5],20.0 ± 3.9%
same,Intracellular calcium release % Ionomycin at 100 µM,[6],12.0 ± 0.9%
same,ERK1/2‐phosphorylation % PDBu at 10 µM,human α1A‐adrenoceptor [7]; response at 10 μM ligand,89.0 ± 3.9%
same,ERK1/2‐phosphorylation Log EC50,human α1B‐adrenoceptor [8]; for bi‐phasic responses the initial stimulatory part,No response
same,ERK1/2‐phosphorylation % PDBu,"human α1B‐adrenoceptor [8]; maximal response as % PDBu response, for bi‐phasic responses the initial stimulatory part",No response
same,ERK1/2‐phosphorylation % PDBu,[9],No response
same,ERK1/2‐phosphorylation Log EC50,[9]; CHO‐α1D cells,No response
same,ERK1/2-phosphorylation % PDBu,[10],No response
same,ERK1/2-phosphorylation Log EC50,[10],No response
COc1ccc(CC(C)NCC(O)c2ccc(O)c(NC=O)c2)cc1 (centres unmarked) [Formoterol],Kd,[3]; 3H‐prazosin binding Log KD,7.08 µM
same,Kd,"[3]; Log KD α1D, ^3H‐prazosin whole cell binding",7.08 µM
same,Intracellular calcium release Log EC50,[6],No response
same,cAMP accumulation (in presence of forskolin) Log EC50,[11],No response
CNC[C@H](O)c1cccc(O)c1 [R-phenylephrine],ERK1/2-phosphorylation % PDBu,[10],No response
same,cAMP accumulation (in presence of forskolin) Log EC50,"[11]; CHO cells without transfected receptors, in presence of forskolin",No response
COc1ccc(OC)c(C(O)CNC(=O)CN)c1 (centres unmarked) [Midodrine],"Log KD, ^3H‐prazosin binding","human α1B‐adrenoceptor [2]; whole‐cell binding (from Table 1), given as log KD (negative numbers)",No binding
same,"Log KD α1B, ^3H‐prazosin whole cell binding","human α1B‐adrenoceptor [2]; given as log KD (negative), mean ± SEM",No binding
same,"3H‐prazosin binding log IC50 (bound, printed in Log KD column)","[3]; CHO‐α1D cells, whole‐cell binding, given as IC50 > log value",IC50 > −3
same,IC50,"[3]; CHO‐α1D cells, printed as IC50> log value",> 1000 µM
same,Intracellular calcium release % Ionomycin at 100 µM,human α1B‐adrenoceptor [5],16.9 ± 2.0%
same,Intracellular calcium release Log EC50,"[6]; CHO‐α1D cells, log values given negative",No response
same,Intracellular calcium release % ionomycin,"[6]; CHO‐α1D cells, maximal response as % of 10 µM ionomycin",No response
same,ERK1/2‐phosphorylation % PDBu at 100 µM,human α1A‐adrenoceptor [7]; response at 100 μM ligand,87.7 ± 11.0%
same,ERK1/2‐phosphorylation % PDBu at 100 µM,human α1B‐adrenoceptor [8]; response at 100 µM ligand (no EC50 given),20.4 ± 8.0%
same,ERK1/2‐phosphorylation Log EC50,[9]; CHO‐α1D cells,No response
same,ERK1/2‐phosphorylation % PDBu,"[9]; CHO‐α1D cells, maximal response as % of PDBu",No response
same,ERK1/2-phosphorylation % PDBu,[10],No response
same,ERK1/2-phosphorylation Log EC50,[10],No response
